Tested on: KRAS-mutant PDC complex spheroid viability
Assay: Anticancer human tumor 186277-243-T-J2-PDC patient-derived colon adenocarcinoma cell line growth inhibition [KRAS2]
Settings: for IC50: curve of first compound; for viability, T/C: stronger effect = lower value
Procedure, shortened: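 KRAS-mutant tumor cells were grown as spheroids with HUVEC endothelial cells and human MSCs as stroma. Targeted agents were tested alone and with KRAS pathway inhibitors. Doses started at or near clinical Cmax, or 10 microM, descending half-log.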

[1] = second compound 0.1 µM, first compound 0.0316 µM
[2] = second compound 0.1 µM, first compound 0.1 µM
[3] = second compound 0.1 µM, first compound 0.316 µM
[4] = second compound 0.1 µM, first compound 1 µM
[5] = second compound 0.1 µM, first compound 3.16 µM
[6] = second compound 0.1 µM, first compound 10 µM
[7] = second compound 0.316 µM, first compound 0.0316 µM
[8] = second compound 0.316 µM, first compound 0.1 µM
[9] = second compound 0.316 µM, first compound 0.316 µM
[10] = second compound 0.316 µM, first compound 1 µM
[11] = second compound 0.316 µM, first compound 3.16 µM
[12] = second compound 0.316 µM, first compound 10 µM
[13] = second compound 1 µM, first compound 0.0316 µM
[14] = second compound 1 µM, first compound 0.1 µM
[15] = second compound 1 µM, first compound 0.316 µM
[16] = second compound 1 µM, first compound 1 µM
[17] = second compound 1 µM, first compound 3.16 µM
[18] = second compound 1 µM, first compound 10 µM
[19] = second compound 3.16 µM, first compound 0.0316 µM
[20] = second compound 3.16 µM, first compound 0.1 µM
[21] = second compound 3.16 µM, first compound 0.316 µM
[22] = second compound 3.16 µM, first compound 1 µM
[23] = second compound 3.16 µM, first compound 3.16 µM
[24] = second compound 3.16 µM, first compound 10 µM
[25] = second compound 10 µM, first compound 0.0316 µM
[26] = second compound 10 µM, first compound 0.1 µM
[27] = second compound 10 µM, first compound 0.316 µM
[28] = second compound 10 µM, first compound 1 µM
[29] = second compound 10 µM, first compound 3.16 µM
[30] = second compound 10 µM, first compound 10 µM
[31] = second compound 0.1 µM, first compound 0.01 µM
[32] = second compound 0.316 µM, first compound 0.01 µM
[33] = second compound 1 µM, first compound 0.01 µM
[34] = second compound 3.16 µM, first compound 0.01 µM
[35] = second compound 10 µM, first compound 0.01 µM
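Throughout, for viability, T/C: viability read after seven days of compound exposure; 100% = DMSO vehicle-treated spheroids so lower means less viable.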

Structure (SMILES): CC(C)NCC(C(=O)N1CCN(c2ncnc3c2C(C)CC3O)CC1)c1ccc(Cl)cc1 (stereo not given) + CC1OCC2(CCN(c3cnc(Sc4ccnc(N)c4Cl)c(N)n3)CC2)C1N
- IC50 (second compound 0.1 µM): 498 nM
- IC50 (second compound 0.316 µM): 389 nM
- IC50 (second compound 1 µM): 268 nM
- IC50 (second compound 3.16 µM): 134 nM
- IC50 (second compound 10 µM): 57.2 nM
- viability, T/C [1]: 110%
- viability, T/C [2]: 98.2%
- viability, T/C [3]: 55.2%
- viability, T/C [4]: 34.9%
- viability, T/C [5]: 25.7%
- viability, T/C [6]: 9.35%
- viability, T/C [7]: 134%
- viability, T/C [8]: 96.9%
- viability, T/C [9]: 54.3%
- viability, T/C [10]: 26.5%
- viability, T/C [11]: 17.3%
- viability, T/C [12]: 7.17%
- viability, T/C [13]: 115%
- viability, T/C [14]: 94%
- viability, T/C [15]: 41.5%
- viability, T/C [16]: 16%
- viability, T/C [17]: 10.7%
- viability, T/C [18]: 4.01%
- viability, T/C [19]: 86.5%
- viability, T/C [20]: 58.3%
- viability, T/C [21]: 25.6%
- viability, T/C [22]: 8.57%
- viability, T/C [23]: 3.93%
- viability, T/C [24]: 2.37%
- viability, T/C [25]: 65.1%
- viability, T/C [26]: 35.8%
- viability, T/C [27]: 9.46%
- viability, T/C [28]: 3.07%
- viability, T/C [29]: 1.79%
- viability, T/C [30]: 1.34%

Structure (SMILES): CC1COCCN1c1cc(-c2ccnn2C)c2ccnc(-c3ccn[nH]3)c2n1 (stereo not given) + CC1OCC2(CCN(c3cnc(Sc4ccnc(N)c4Cl)c(N)n3)CC2)C1N
- IC50 (second compound 0.1 µM): 20.7 nM
- IC50 (second compound 0.316 µM): 21.6 nM
- IC50 (second compound 1 µM): 21.5 nM
- IC50 (second compound 3.16 µM): 20.7 nM
- IC50 (second compound 10 µM): 15.2 nM
- viability, T/C [31]: 82.6%
- viability, T/C [1]: 30.9%
- viability, T/C [2]: 4.6%
- viability, T/C [3]: 3.38%
- viability, T/C [4]: 2.91%
- viability, T/C [5]: 3.41%
- viability, T/C [32]: 90.3%
- viability, T/C [7]: 29.9%
- viability, T/C [8]: 4.69%
- viability, T/C [9]: 2.62%
- viability, T/C [10]: 2.7%
- viability, T/C [11]: 3.03%
- viability, T/C [33]: 113%
- viability, T/C [13]: 18.7%
- viability, T/C [14]: 3.36%
- viability, T/C [15]: 2.01%
- viability, T/C [16]: 2.23%
- viability, T/C [17]: 2.83%
- viability, T/C [34]: 111%
- viability, T/C [19]: 14.6%
- viability, T/C [20]: 3.13%
- viability, T/C [21]: 1.78%
- viability, T/C [22]: 1.9%
- viability, T/C [23]: 2.66%
- viability, T/C [35]: 72.9%
- viability, T/C [25]: 10.5%
- viability, T/C [26]: 4.95%
- viability, T/C [27]: 4.89%
- viability, T/C [28]: 2.16%
- viability, T/C [29]: 3.22%

Structure (SMILES): CCN1CCN(Cc2ccc(Nc3ncc(F)c(-c4cc(F)c5nc(C)n(C(C)C)c5c4)n3)nc2)CC1 + CC1OCC2(CCN(c3cnc(Sc4ccnc(N)c4Cl)c(N)n3)CC2)C1N
- IC50 (second compound 0.1 µM): > 1000 nM
- IC50 (second compound 0.316 µM): 839 nM
- IC50 (second compound 1 µM): 574 nM
- IC50 (second compound 3.16 µM): 326 nM
- IC50 (second compound 10 µM): 102 nM
- viability, T/C (second compound 0.1 µM, first compound 0.00316 µM): 96.9%
- viability, T/C [31]: 88.9%
- viability, T/C [1]: 113%
- viability, T/C [2]: 148%
- viability, T/C [3]: 161%
- viability, T/C [4]: 60.8%
- viability, T/C (second compound 0.316 µM, first compound 0.00316 µM): 95.2%
- viability, T/C [32]: 98.7%
- viability, T/C [7]: 138%
- viability, T/C [8]: 155%
- viability, T/C [9]: 125%
- viability, T/C [10]: 36.8%
- viability, T/C (second compound 1 µM, first compound 0.00316 µM): 88.8%
- viability, T/C [33]: 118%
- viability, T/C [13]: 138%
- viability, T/C [14]: 125%
- viability, T/C [15]: 82.3%
- viability, T/C [16]: 19.9%
- viability, T/C (second compound 3.16 µM, first compound 0.00316 µM): 113%
- viability, T/C [34]: 130%
- viability, T/C [19]: 97%
- viability, T/C [20]: 85.1%
- viability, T/C [21]: 52.2%
- viability, T/C [22]: 8.29%
- viability, T/C (second compound 10 µM, first compound 0.00316 µM): 123%
- viability, T/C [35]: 92.3%
- viability, T/C [25]: 67%
- viability, T/C [26]: 56.8%
- viability, T/C [27]: 28.7%
- viability, T/C [28]: 3.85%

Structure (SMILES): CCNC(=O)CC1N=C(c2ccc(Cl)cc2)c2cc(OC)ccc2-n2c(C)nnc21 (stereo not given) + CC1OCC2(CCN(c3cnc(Sc4ccnc(N)c4Cl)c(N)n3)CC2)C1N
- IC50 (second compound 0.1 µM): 5830 nM
- IC50 (second compound 0.316 µM): 1050 nM
- IC50 (second compound 1 µM): 338 nM
- IC50 (second compound 3.16 µM): 155 nM
- IC50 (second compound 10 µM): 51 nM
- viability, T/C [1]: 92.5%
- viability, T/C [2]: 104%
- viability, T/C [3]: 144%
- viability, T/C [4]: 92.7%
- viability, T/C [5]: 66%
- viability, T/C [6]: 37%
- viability, T/C [7]: 108%
- viability, T/C [8]: 121%
- viability, T/C [9]: 103%
- viability, T/C [10]: 50.6%
- viability, T/C [11]: 26.5%
- viability, T/C [12]: 16.8%
- viability, T/C [13]: 97.6%
- viability, T/C [14]: 128%
- viability, T/C [15]: 52.2%
- viability, T/C [16]: 16.2%
- viability, T/C [17]: 14%
- viability, T/C [18]: 8.15%
- viability, T/C [19]: 109%
- viability, T/C [20]: 67.8%
- viability, T/C [21]: 20.9%
- viability, T/C [22]: 7.45%
- viability, T/C [23]: 4.82%
- viability, T/C [24]: 4.45%
- viability, T/C [25]: 64.2%
- viability, T/C [26]: 30%
- viability, T/C [27]: 9.5%
- viability, T/C [28]: 4.12%
- viability, T/C [29]: 3.89%
- viability, T/C [30]: 2.6%

Structure (SMILES): Cn1nccc1Nc1nccc(-c2cc3c(s2)C(C)(C)N(CCN2CCOCC2)C3=O)n1 + CC1OCC2(CCN(c3cnc(Sc4ccnc(N)c4Cl)c(N)n3)CC2)C1N
- IC50 (second compound 0.1 µM): 306 nM
- IC50 (second compound 0.316 µM): 219 nM
- IC50 (second compound 1 µM): 224 nM
- IC50 (second compound 3.16 µM): 176 nM
- IC50 (second compound 10 µM): 77.4 nM
- viability, T/C [1]: 106%
- viability, T/C [2]: 107%
- viability, T/C [3]: 48.3%
- viability, T/C [4]: 9.06%
- viability, T/C [5]: 4.04%
- viability, T/C [6]: 5.66%
- viability, T/C [7]: 104%
- viability, T/C [8]: 114%
- viability, T/C [9]: 22.5%
- viability, T/C [10]: 7.68%
- viability, T/C [11]: 2.95%
- viability, T/C [12]: 4.77%
- viability, T/C [13]: 106%
- viability, T/C [14]: 114%
- viability, T/C [15]: 24.3%
- viability, T/C [16]: 4.22%
- viability, T/C [17]: 2.3%
- viability, T/C [18]: 3.66%
- viability, T/C [19]: 118%
- viability, T/C [20]: 85.6%
- viability, T/C [21]: 13%
- viability, T/C [22]: 2.81%
- viability, T/C [23]: 1.49%
- viability, T/C [24]: 2.19%
- viability, T/C [25]: 86.8%
- viability, T/C [26]: 39.5%
- viability, T/C [27]: 5.87%
- viability, T/C [28]: 2.69%
- viability, T/C [29]: 1.11%
- viability, T/C [30]: 1.69%

Structure (SMILES): CC(=O)OC12COC1CC(O)C1(C)C(=O)C(O)C3=C(C)C(OC(=O)C(O)C(NC(=O)OC(C)(C)C)c4ccccc4)CC(O)(C(OC(=O)c4ccccc4)C21)C3(C)C (stereo not given) + CNCc1ccccc1-c1csc(C(C)Nc2nc(C)nc3cc(OC)c(OC)cc23)c1
- IC50 (second compound 0.1 µM): < 10 nM
- IC50 (second compound 0.316 µM): < 10 nM
- IC50 (second compound 1 µM): < 10 nM
- IC50 (second compound 3.16 µM): < 10 nM
- IC50 (second compound 10 µM): < 10 nM
- viability, T/C [31]: 4.85%
- viability, T/C [1]: 2.89%
- viability, T/C [2]: 2.72%
- viability, T/C [3]: 2.61%
- viability, T/C [4]: 2.94%
- viability, T/C [5]: 3.13%
- viability, T/C [32]: 4.19%
- viability, T/C [7]: 2.44%
- viability, T/C [8]: 2.68%
- viability, T/C [9]: 2.5%
- viability, T/C [10]: 2.71%
- viability, T/C [11]: 3.02%
- viability, T/C [33]: 4.69%
- viability, T/C [13]: 3.7%
- viability, T/C [14]: 3.39%
- viability, T/C [15]: 3.25%
- viability, T/C [16]: 3.43%
- viability, T/C [17]: 3.79%
- viability, T/C [34]: 6.31%
- viability, T/C [19]: 0.05%
- viability, T/C [20]: 0.02%
- viability, T/C [21]: 0.03%
- viability, T/C [22]: 0.05%
- viability, T/C [23]: 3%
- viability, T/C [35]: 0.13%
- viability, T/C [25]: 0.1%
- viability, T/C [26]: 0.08%
- viability, T/C [27]: 0.33%
- viability, T/C [28]: 3.35%
- viability, T/C [29]: 0.58%
